In US7067519B2 (priority 2002, dated 2006):

Key:
[1] = target: T1, human orexin-1 receptor (Homo sapiens, UniProt O43613); test: Intracellular calcium measurement (FLIPR), OX1 receptor antagonistic activity; format: cell-based; conditions: CHO cells expressing human orexin-1 receptor, agonist 10 nM human orexin-A, fluo-3 calcium
T1 construct: expressed in transfected cells; host or cells: CHO cells (G418 selection)
T1 sequence (O43613 1-425): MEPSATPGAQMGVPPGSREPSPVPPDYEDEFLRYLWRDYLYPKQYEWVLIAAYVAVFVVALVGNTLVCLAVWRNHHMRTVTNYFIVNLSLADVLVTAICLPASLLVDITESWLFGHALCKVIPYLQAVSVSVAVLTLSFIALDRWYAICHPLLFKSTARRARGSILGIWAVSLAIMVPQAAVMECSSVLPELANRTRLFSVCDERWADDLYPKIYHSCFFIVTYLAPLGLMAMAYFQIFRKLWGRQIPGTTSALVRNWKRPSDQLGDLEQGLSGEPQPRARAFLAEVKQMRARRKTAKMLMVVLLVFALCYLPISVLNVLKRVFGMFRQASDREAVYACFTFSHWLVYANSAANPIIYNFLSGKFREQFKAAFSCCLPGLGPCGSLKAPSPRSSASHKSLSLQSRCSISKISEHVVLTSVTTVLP
Experimental: (§1) Determination of OX1 and OX2 Receptor Antagonistic Activities
(§2) The OX1 and OX2 receptor antagonistic activity of the compounds of formula (I) was determined in accordance with the following experimental method.
(§3) Intracellular Calcium Measurements
(§4) Chinese hamster ovary (CHO) cells expressing the human orexin-1 receptor or the human orexin-2 receptor, were grown in culture medium (Ham F-12 with L-Glutamine) containing 300 μg/ml G418, 100 U/ml penicillin, 100 μg/ml streptomycin and 10% inactivated foetal calf serum (FCS).
(§5) The cells were seeded at 80'000 cells/well into 96-well black clear bottom sterile plates (Costar) which had been precoated with 1% gelatine in Hanks' Balanced Salt Solution (HBSS). All reagents were from Gibco BRL.
(§6) The seeded plates were incubated overnight at 37° C. in 5% CO2.
(§7) Human orexin-A as an agonist was prepared as 1 mM stock solution in methanol:water (1:1), diluted in HBSS containing 0.1% bovine serum albumin (BSA) and 2 mM HEPES for use in the assay at a final concentration of 10 nM.
(§8) Antagonists were prepared as 10 mM stock solution in DMSO, then diluted in 96-well plates, first in DMSO, then in HBSS containing 0.1% bovine serum albumin (BSA) and 2 mM HEPES.
(§9) On the day of the assay, 100 μl of loading medium (HBSS containing 1% FCS, 2 mM HEPES, 5 mM probenecid (Sigma) and 3 μM of the fluorescent calcium indicator fluo-3 AM (1 mM stock solution in DMSO with 10% pluronic acid) (Molecular Probes) was added to each well.
(§10) The 96-well plates were incubated for 60 min at 37° C. in 5% CO2. The loading solution was then aspirated and cells were washed 3 times with 200 μl HBSS containing 2.5 mM probenecid, 0.1% BSA, 2 mM HEPES. 100 μl of that same buffer was left in each well. Within the Fluorescent Imaging Plate Reader (FLIPR, Molecular Devices), antagonists were added to the plate in a volume of 50 μl, incubated for 20 min and finally 100 μl of
(§11) agonist was added. Fluorescence was measured for each well at 1 second intervals, and the height of each fluorescence peak was compared to the height of the fluorescence peak induced by 10 nM orexin-A with buffer in place of antagonist. For each antagonist, IC50 value (the concentration of compound needed to inhibit 50% of the agonistic response) was determined.

[2] = target: T2, human orexin-2 receptor (Homo sapiens, UniProt O43614); test: Intracellular calcium measurement (FLIPR), OX2 receptor antagonistic activity; format: cell-based; conditions: CHO cells expressing human orexin-2 receptor, agonist 10 nM human orexin-A, fluo-3 calcium
T2 construct: expressed in transfected cells; host or cells: CHO cells (G418 selection)
T2 sequence (O43614 1-444): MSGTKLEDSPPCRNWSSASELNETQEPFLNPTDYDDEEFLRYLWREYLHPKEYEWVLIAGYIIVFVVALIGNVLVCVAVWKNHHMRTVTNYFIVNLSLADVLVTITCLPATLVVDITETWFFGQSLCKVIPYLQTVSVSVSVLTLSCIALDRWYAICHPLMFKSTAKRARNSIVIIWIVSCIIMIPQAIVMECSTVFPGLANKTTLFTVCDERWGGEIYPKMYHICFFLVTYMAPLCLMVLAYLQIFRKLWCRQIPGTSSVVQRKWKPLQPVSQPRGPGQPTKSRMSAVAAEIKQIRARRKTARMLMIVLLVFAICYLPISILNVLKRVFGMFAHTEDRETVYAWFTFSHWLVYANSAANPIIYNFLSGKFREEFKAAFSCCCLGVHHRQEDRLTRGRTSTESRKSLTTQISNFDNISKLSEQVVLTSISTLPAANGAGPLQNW
Experimental: as §1, §2, §3, §4, §5, §6, §7, §8, §9, §10, §11

| IC50 [1] [nM] | IC50 [2] [nM] | Compound |
| --- | --- | --- |
| 127 | 18 | CCCc1ccccc1NC(=O)N(C(C)c1ccccc1)C1CCCn2c1nc1cc(F)ccc1c2=O (stereo not shown) [Example 33, 1-(3-Fluoro-11-oxo-6,8,9,11-tetrahydro-7H-pyrido[2,1-b]quinazolin-6-yl)-1-(1-phenyl-ethyl)-3-(2-n-propyl-phenyl)-urea] |
| 52 | 14 | CC(c1ccccc1)N(C(=O)Nc1ccccc1-c1ccccc1)C1CCn2c1nc1cccc(Cl)c1c2=O (stereo not shown) [Example 41, 3-Biphenyl-2-yl-1-(8-chloro-9-oxo-1,2,3,9-tetrahydro-pyrrolo[2,1-b]quinazolin-3-yl)-1-(1-phenyl-ethyl)-urea] |
| 67 | 27 | CCCc1ccccc1NC(=O)N(C(C)c1ccccc1)C1CCn2c1nc1cccc(Cl)c1c2=O (stereo not shown) [Example 44, 1-(8-Chloro-9-oxo-1,2,3,9-tetrahydro-pyrrolo[2,1-b]quinazolin-3-yl)-1-(1-phenyl-ethyl)-3-(2-n-propyl-phenyl)-urea] |
| 12 | 16 | C[C@@H](c1ccccc1)N(C(=O)Nc1ccccc1OC(F)(F)F)C1CCn2c1nc1cccc(C(F)(F)F)c1c2=O (stereo partly drawn) [Example 49, 1-(9-Oxo-8-trifluoromethyl-1,2,3,9-tetrahydro-pyrrolo[2,1-b]quinazolin-3-yl)-1-((S)-1-phenyl-ethyl)-3-(2-trifluoromethoxy-phenyl)-urea] |
| 14 | 18 | CCCc1ccccc1NC(=O)N(C1CCn2c1nc1cccc(C(F)(F)F)c1c2=O)[C@@H](C)c1ccccc1 (stereo partly drawn) [Example 50, 1-(9-Oxo-8-trifluoromethyl-1,2,3,9-tetrahydro-pyrrolo[2,1-b]quinazolin-3-yl)-1-((S)-1-phenyl-ethyl)-3-(2-n-propyl-phenyl)-urea] |
| 28 | 21 | CCc1ccccc1NC(=O)N(C1CCn2c1nc1cccc(C(F)(F)F)c1c2=O)[C@@H](C)c1ccccc1 (stereo partly drawn) [Example 51, 3-(2-Ethyl-phenyl)-1-(9-oxo-8-trifluoromethyl-1,2,3,9-tetrahydro-pyrrolo[2,1-b]quinazolin-3-yl)-1-((S)-1-phenyl-ethyl)-urea] |

Further lines, the compound ahead of its results:

| Compound | IC50 [1] [nM] | IC50 [2] [nM] |
| --- | --- | --- |
| CCOc1ccccc1NC(=O)N(C(C)c1ccccc1)C1CCn2c1nc1ccccc1c2=O (stereo not shown) [Example 3, 3-(2-Ethoxy-phenyl)-1-(9-oxo-1,2,3,9-tetrahydro-pyrrolo[2,1-b]quinazolin-3-yl)-1-(1-phenyl-ethyl)-urea] | 115 | 79 |
| CC(c1ccccc1)N(C(=O)Nc1ccccc1OC(F)(F)F)C1CCn2c1nc1cc(F)ccc1c2=O (stereo not shown) [Example 7, 1-(6-Fluoro-9-oxo-1,2,3,9-tetrahydro-pyrrolo[2,1-b]quinazolin-3-yl)-1-(1-phenyl-ethyl)-3-(2-trifluoromethoxy-phenyl)-urea] | 2400 | 27 |
| CCCc1ccccc1NC(=O)N(C(C)c1ccccc1)C1CCCn2c1nc1cc(F)c(F)cc1c2=O (stereo not shown) [Example 28, 1-(2,3-Difluoro-11-oxo-6,8,9,11-tetrahydro-7H-pyrido[2,1-b]quinazolin-6-yl)-1-(1-phenyl-ethyl)-3-(2-n-propyl-phenyl)-urea] | 153 | 17 |
| CCc1ccccc1NC(=O)N(C(C)c1ccccc1)C1CCCn2c1nc1cc(F)c(F)cc1c2=O (stereo not shown) [Example 30, 1-(2,3-Difluoro-11-oxo-6,8,9,11-tetrahydro-7H-pyrido[2,1-b]quinazolin-6-yl)-3-(2-ethyl-phenyl)-1-(1-phenyl-ethyl)-urea] | 261 | 16 |
| CC(c1ccccc1)N(C(=O)Nc1ccccc1OC(F)(F)F)C1CCn2c1nc1cccc(Cl)c1c2=O (stereo not shown) [Example 40] | 37 | 14 |
